pIC50: −log10 of the molar value.
These compounds were tested against full-length human BTK (Homo sapiens (Human), UniProt Q06187) (assay: Assay A: microfluidic off-chip mobility shift assay against BTK enzyme).
Assay type: biochemical
Description: Assay A: Microfluidic Off-Chip Mobility Shift Assay Protocol for Potency Assessment Against BTK Enzyme
The protocol below describes microfluidic, off-chip mobility shift kinase assay to measure inherent potency of compounds against BTK enzyme.
5 uL of enzyme buffer and 7.5 uL of ATP/kinKDR peptide substrate mix were added to Matrix (#115304) 384-well, sterile, polypropylene plates (Thermo Fisher Scientific, Hudson, N.H.) with 125 nL of serially diluted compounds prepared in 100% DMSO, and incubated for 90 min. at 27° C. Following the incubation period, reactions were stopped by adding 60 uL stop buffer consisting of 100 mM HEPES, pH 7.5, 0.015% Brij-35 (30%), 0.277% Coating Reagent #3 (Caliper Life Sciences, Mountain View, Calif.), 5% DMSO. Stopped reactions were monitored at −2 PSI, −3000 V/−700 V in a LabChip 3000 plate reader from Caliper Life Sciences, a PerkinElmer Company (Hopkinton, Mass.), and the activity was measured by off-chip mobility shift assay measuring the charge/mass difference between substrate and product resulting from peptide phosphorilation. IC50 and efficacy were determined by plotting log [Inhibitor] vs. % Activity in GeneData Screener (Basel. Switzerland).

full-length human BTK, sequence (Q06187 whole entry): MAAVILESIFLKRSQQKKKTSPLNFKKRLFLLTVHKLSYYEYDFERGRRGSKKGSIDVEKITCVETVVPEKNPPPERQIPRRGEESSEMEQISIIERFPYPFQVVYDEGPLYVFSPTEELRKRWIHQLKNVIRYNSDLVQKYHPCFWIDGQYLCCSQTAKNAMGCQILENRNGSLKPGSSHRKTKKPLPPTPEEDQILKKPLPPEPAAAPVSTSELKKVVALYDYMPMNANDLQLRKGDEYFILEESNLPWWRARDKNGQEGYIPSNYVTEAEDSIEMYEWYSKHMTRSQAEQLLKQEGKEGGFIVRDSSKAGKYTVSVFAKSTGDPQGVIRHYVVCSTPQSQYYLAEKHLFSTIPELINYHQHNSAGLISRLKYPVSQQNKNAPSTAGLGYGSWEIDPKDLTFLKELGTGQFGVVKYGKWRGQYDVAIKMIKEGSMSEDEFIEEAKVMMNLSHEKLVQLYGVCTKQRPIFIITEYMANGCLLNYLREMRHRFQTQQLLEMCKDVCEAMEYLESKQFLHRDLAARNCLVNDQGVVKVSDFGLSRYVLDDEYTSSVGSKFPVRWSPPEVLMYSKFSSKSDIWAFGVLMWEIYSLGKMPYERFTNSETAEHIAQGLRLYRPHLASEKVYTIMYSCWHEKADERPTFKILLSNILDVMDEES

Row | pIC50 | Structure (SMILES)
1 | < 5.30 | Cn1cc(-c2nc3c(-c4ccc(CNS(=O)(=O)CC5CCCS(=O)(=O)C5)c(F)c4)ccnc3[nH]2)cn1 (stereo not drawn) [Example 179, 1-(1,1-dioxidotetrahydro-2H-thiopyran-3-yl)-N-(2-fluoro-4-(2-(1-methyl-1H-pyrazol-4-yl)-3H-imidazo[4,5-b]pyridin-7-yl)benzyl)methanesulfonamide]
2 | < 5.30 | Cn1cc(-c2nc3c(-c4ccc(CNCc5cccc(C(C)(C)C)c5)c(F)c4)ccnc3[nH]2)cn1 [Example 180, N-(3-(tert-butyl)benzyl)-1-(2-fluoro-4-(2-(1-methyl-1H-pyrazol-4-yl)-3H-imidazo[4,5-b]pyridin-7-yl)phenyl)methanamine]
3 | < 5.30 | Cn1cc(-c2nc3c(-c4ccc(CNS(C)(=O)=O)c(F)c4)ccnc3[nH]2)cn1 [Example 176, N-(2-fluoro-4-(2-(1-methyl-1H-pyrazol-4-yl)-3H-imidazo[4,5-b]pyridin-7-yl)benzyl)methanesulfonamide]
4 | > 7.00 | CN(C)c1ccc(-c2nc3c(-c4ccc(CNC(=O)c5nnc(C(C)(C)C)o5)c(F)c4)ccnc3[nH]2)nc1 [Example 172, 5-tert-butyl-N-[(4-[2-[5-(dimethylamino)pyridin-2-yl]-3H-imidazo[4,5-b]pyridin-7-yl]-2-fluorophenyl)methyl]-1,3,4-oxadiazole-2-carboxamide]
5 | 5.30 to 6.00 | NCc1ccc(-c2ccnc3[nH]c(-c4cnn(C5CCC5)c4)nc23)cc1F [Example 188, 4-[2-(1-Cyclobutyl-1H-pyrazol-4-yl)-3H-imidazo[4,5-b]pyridin-7-yl]-2-fluoro-benzylamine]
6 | 5.30 to 6.00 | Cn1cc(-c2nc3c(-c4ccc(CNS(=O)(=O)CC5(CC#N)CC5)c(F)c4)ccnc3[nH]2)cn1 [Example 177, 1-(1-(cyanomethyl)cyclopropyl)-N-(2-fluoro-4-(2-(1-methyl-1H-pyrazol-4-yl)-3H-imidazo[4,5-b]pyridin-7-yl)benzyl)methanesulfonamide]
7 | < 5.30 | Cc1ccc(S(=O)(=O)NCc2ccc(-c3ccnc4[nH]c(-c5cnn(C)c5)nc34)cc2F)cc1 [Example 175, N-(2-fluoro-4-(2-(1-methyl-1H-pyrazol-4-yl)-3H-imidazo[4,5-b]pyridin-7-yl)benzyl)-4-methylbenzenesulfonamide]
8 | < 5.30 | Cn1cc(-c2nc3c(-c4ccc(CNCc5ccc(C(C)(C)C)cc5)c(F)c4)ccnc3[nH]2)cn1 [Example 181, N-(4-(tert-butyl)benzyl)-1-(2-fluoro-4-(2-(1-methyl-1H-pyrazol-4-yl)-3H-imidazo[4,5-b]pyridin-7-yl)phenyl)methanamine]
9 | 5.30 to 6.00 | Cn1cc(-c2nc3c(-c4ccc(CNS(=O)(=O)CCC5CCC5)c(F)c4)ccnc3[nH]2)cn1 [Example 178, 2-cyclobutyl-N-(2-fluoro-4-(2-(1-methyl-1H-pyrazol-4-yl)-3H-imidazo[4,5-b]pyridin-7-yl)benzyl)ethanesulfonamide]
10 | < 5.30 | Cn1cc(-c2nc3c(-c4ccc(CNCc5ccc(F)c(F)c5)c(F)c4)ccnc3[nH]2)cn1 [Example 174, N-(3,4-difluorobenzyl)-1-(2-fluoro-4-(2-(1-methyl-1H-pyrazol-4-yl)-3H-imidazo[4,5-b]pyridin-7-yl)phenyl)methanamine]

Further lines, the compound ahead of its results:

Row | Structure (SMILES) | pIC50
11 | Cn1cc(-c2nc3c(-c4ccc(CN5CCOc6cc(C7CC7)cc(F)c6C5=O)nc4)ccnc3[nH]2)cn1 [Example 171, 8-cyclopropyl-6-fluoro-4-([5-[2-(1-methyl-1H-pyrazol-4-yl)-3H-imidazo[4,5-b]pyridin-7-yl]pyridin-2-yl]methyl)-2,3,4,5-tetrahydro-1,4-benzoxazepin-5-one] | > 7.00
12 | Cn1cc(-c2nc3c(-c4ccc(C5(NC(=O)c6nnc(C(C)(C)C)o6)CC5)cc4)ccnc3[nH]2)cn1 [Example 97, 5-tert-Butyl-[1,3,4]oxadiazole-2-carboxylic acid (1-{4-[2-(1-methyl-1H-pyrazol-4-yl)-3H-imidazo[4,5-b]pyridin-7-yl]-phenyl}-cyclopropyl)-amide] | > 7.00
13 | CC(C)(C)OC(=O)N1CC=C(c2nc3c(-c4ccc(CNC(=O)c5noc(C(C)(C)C)n5)c(F)c4)ccnc3[nH]2)CC1 [Example 137, tert-butyl 4-(7-(4-((5-(tert-butyl)-1,2,4-oxadiazole-3-carboxamido)methyl)-3-fluorophenyl)-3H-imidazo[4,5-b]pyridin-2-yl)-5,6-dihydropyridine-1(2H)-carboxylate] | > 7.00
14 | Cc1ccc(-n2ccn(-c3cccc(-c4ccnc5[nH]c(-c6ccc(C(=O)N7CCOCC7)cc6)nc45)c3CO)c2=O)cc1 [Example 96, 1-[2-(Hydroxymethyl)-3-(2-[4-[(morpholin-4-yl)carbonyl]phenyl]-3H-imidazo[4,5-b]pyridin-7-yl)phenyl]-3-(4-methylphenyl)-2,3-dihydro-1H-imidazol-2-one] | 6.00 to 7.00
15 | Cn1cc(-c2nc3c(-c4ccc5c(c4)CCN(C(=O)c4nc(C(C)(C)C)no4)C5)ccnc3[nH]2)cn1 [Example 154, (3-tert-Butyl-[1,2,4]oxadiazol-5-yl)-{6-[2-(1-methyl-1H-pyrazol-4-yl)-3H-imidazo[4,5-b]pyridin-7-yl]-3,4-dihydro-1H-isoquinolin-2-yl}-methanone] | < 5.30
16 | Cn1cc(-c2nc3c(-c4cccc(CNC(=O)c5noc(C(C)(C)C)n5)c4)ccnc3[nH]2)cn1 [Example 87, 5-tert-Butyl-N-([3-[2-(1-methyl-1H-pyrazol-4-yl)-3H-imidazo[4,5-b]pyridin-7-yl]phenyl]methyl)-1,2,4-oxadiazole-3-carboxamide] | 5.30 to 6.00
17 | Cc1cc(-c2ccnc3[nH]c(-c4ccc(OCC(O)CO)cn4)nc23)ccc1CN1CCOc2cc(C3CC3)cc(F)c2C1=O (stereo not drawn) [Example 170, 8-cyclopropyl-4-[(4-[2-[5-(2,3-dihydroxypropoxy)pyridin-2-yl]-3H-imidazo[4,5-b]pyridin-7-yl]-2-methylphenyl)methyl]-6-fluoro-2,3,4,5-tetrahydro-1,4-benzoxazepin-5-one] | > 7.00
18 | CN1CCC(c2ccc(-c3nc4c(-c5ccc(CNC(=O)c6noc(C(C)(C)C)n6)c(F)c5)ccnc4[nH]3)nc2)CC1 [Example 169, 5-tert-butyl-N-[(2-fluoro-4-[2-[5-(1-methylpiperidin-4-yl)pyridin-2-yl]-3H-imidazo[4,5-b]pyridin-7-yl]phenyl)methyl]-1,2,4-oxadiazole-3-carboxamide] | > 7.00
19 | CC(C)(C)c1noc(C(=O)NCc2ccc(-c3ccnc4[nH]c(-c5ccc(N6CCCCC6)cn5)nc34)cc2F)n1 [Example 157, 3-tert-Butyl-N-[(2-fluoro-4-[2-[5-(piperidin-1-yl)pyridin-2-yl]-3H-imidazo[4,5-b]pyridin-7-yl]phenyl)methyl]-1,2,4-oxadiazole-5-carboxamide] | > 7.00
20 | COc1ccc(-c2nc3c(-c4ccc(CNC(=O)c5nnc(C(C)(C)C)o5)c(F)c4)ccnc3[nH]2)nc1 [Example 158, 5-tert-butyl-N-([2-fluoro-4-[2-(5-methoxypyridin-2-yl)-3H-imidazo[4,5-b]pyridin-7-yl]phenyl]methyl)-1,3,4-oxadiazole-2-carboxamide] | > 7.00
21 | CC(C)(C)c1nc(C(=O)NCc2ccc(-c3ccnc4[nH]c(-c5ccc(N6CCC(F)CC6)cn5)nc34)cc2F)no1 [Example 167, 5-tert-butyl-N-[(2-fluoro-4-[2-[5-(4-fluoropiperidin-1-yl)pyridin-2-yl]-3H-imidazo[4,5-b]pyridin-7-yl]phenyl)methyl]-1,2,4-oxadiazole-3-carboxamide] | > 7.00

Source: patent US11098041B2 (Merck Patent GmbH, priority 2014, dated 2021)
